Laboratory results taken from ChEMBL document CHEMBL4602617, “Discovery and optimization of heteroaryl piperazines as potent and selective PI3Kδ inhibitors” (Bioorg Med Chem Lett, 2020).

How the values were obtained:
[1] = Oral bioavailability in dog at 0.5 mg/kg; format: ADME, organism-based, Canis lupus familiaris; details: in vivo
[2] = molecular target: Nuclear receptor subfamily 1 group I member 2 (Homo sapiens, UniProt O75469); assay: Inhibition of PXR (unknown origin)
[3] = molecular target: Adenosine receptor A2a (Homo sapiens) (UniProt P29274); assay: Displacement of [3H]CGS-21680 from full-length recombinant human A2A receptor expressed in HEK293 cells at 10 uM measured after 90 mins by scintillation counting method relative to control; format: cell-based
Sequence of Adenosine receptor A2a (Homo sapiens) (P29274 whole entry): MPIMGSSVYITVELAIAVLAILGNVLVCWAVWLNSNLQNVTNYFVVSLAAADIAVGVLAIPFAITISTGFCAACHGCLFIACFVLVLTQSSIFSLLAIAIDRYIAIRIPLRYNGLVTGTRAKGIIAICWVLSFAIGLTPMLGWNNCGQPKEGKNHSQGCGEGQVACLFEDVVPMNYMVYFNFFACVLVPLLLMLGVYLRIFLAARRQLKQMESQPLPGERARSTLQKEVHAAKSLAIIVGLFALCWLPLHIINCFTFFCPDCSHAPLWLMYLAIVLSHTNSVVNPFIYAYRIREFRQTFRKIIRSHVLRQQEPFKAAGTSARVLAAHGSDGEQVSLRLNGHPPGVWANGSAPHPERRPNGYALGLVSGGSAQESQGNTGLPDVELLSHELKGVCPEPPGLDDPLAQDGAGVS

[4] = molecular target: Glutamate receptor ionotropic, AMPA (Rattus norvegicus) (UniProt P19491+P19492+P19493+P19490); assay: Displacement of [3H]AMPA from glutamate AMPA receptor in Wistar rat cerebral cortical membranes at 10 uM incubated for 90 mins by radiometric scintillation analysis relative to control
[5] = molecular target: Mitogen-activated protein kinase kinase kinase kinase 4 (Homo sapiens, UniProt O95819); assay: Inhibition of recombinant GST-tagged human MAP4K4 catalytic domain expressed in baculovirus expression system using Ser/Thr 07 peptide as substrate after 1 hr in presence of ATP by Z'-LYTE assay
[6] = molecular target: Serine/threonine-protein kinase B-raf (Homo sapiens, UniProt P15056, V600E); assay: Inhibition of […] N-terminal GST-tagged human BRAF V599E mutant (416 to 766 residues) expressed in baculovirus expression system using Ser/Thr 03 as substrate after 1 hr in presence of ATP by Z'-LYTE assay
[7] = molecular target: Testis-specific serine/threonine-protein kinase 2 (Homo sapiens, UniProt Q96PF2); assay: Inhibition of recombinant full length human His-tagged STK22B expressed in baculovirus expression system using serine/threonine-04 peptide as substrate incubated for 60 mins in presence of ATP by Z'-LYTE assay
[8] = molecular target: Mitogen-activated protein kinase kinase kinase 9 (Homo sapiens, UniProt P80192); assay: Inhibition of recombinant human GST-tagged MAP3K9 catalytic domain expressed in baculovirus expression system using serine/threonine-7 peptide as substrate incubated for 60 mins in presence of ATP by Z'-LYTE assay
Sequence of Mitogen-activated protein kinase kinase kinase 9 (P80192 whole entry, the tested form may be a part): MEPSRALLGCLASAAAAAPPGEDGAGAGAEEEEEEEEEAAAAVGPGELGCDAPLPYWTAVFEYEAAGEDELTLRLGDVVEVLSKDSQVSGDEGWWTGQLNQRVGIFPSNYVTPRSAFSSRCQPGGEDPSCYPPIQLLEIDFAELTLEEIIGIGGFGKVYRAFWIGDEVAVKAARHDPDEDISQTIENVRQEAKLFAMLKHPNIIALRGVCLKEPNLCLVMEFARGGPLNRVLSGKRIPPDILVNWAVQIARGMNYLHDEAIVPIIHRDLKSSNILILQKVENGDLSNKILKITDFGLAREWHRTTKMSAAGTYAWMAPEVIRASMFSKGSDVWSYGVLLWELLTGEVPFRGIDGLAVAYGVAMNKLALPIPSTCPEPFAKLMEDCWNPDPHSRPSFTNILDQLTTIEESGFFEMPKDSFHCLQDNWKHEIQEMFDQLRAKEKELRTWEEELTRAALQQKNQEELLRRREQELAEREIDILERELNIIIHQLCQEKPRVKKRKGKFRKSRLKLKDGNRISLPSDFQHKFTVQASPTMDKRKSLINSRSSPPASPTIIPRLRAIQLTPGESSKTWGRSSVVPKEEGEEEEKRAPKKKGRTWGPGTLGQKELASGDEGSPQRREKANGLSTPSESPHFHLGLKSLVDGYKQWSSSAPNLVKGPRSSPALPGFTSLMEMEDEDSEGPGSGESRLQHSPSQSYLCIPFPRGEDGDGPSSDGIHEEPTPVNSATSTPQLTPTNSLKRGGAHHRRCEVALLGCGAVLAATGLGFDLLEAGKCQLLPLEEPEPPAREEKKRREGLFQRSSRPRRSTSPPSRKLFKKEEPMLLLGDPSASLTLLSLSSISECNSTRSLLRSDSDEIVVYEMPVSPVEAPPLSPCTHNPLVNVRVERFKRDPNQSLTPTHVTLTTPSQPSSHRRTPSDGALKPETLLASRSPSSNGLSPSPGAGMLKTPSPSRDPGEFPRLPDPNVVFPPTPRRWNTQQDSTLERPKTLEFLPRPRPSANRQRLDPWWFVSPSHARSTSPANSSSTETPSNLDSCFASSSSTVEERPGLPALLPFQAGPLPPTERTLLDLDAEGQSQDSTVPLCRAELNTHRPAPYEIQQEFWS

[9] = molecular target: Vasopressin V1b receptor (Homo sapiens) (UniProt P47901); assay: Displacement of [3H]-(Arg8)-Vasopressin from recombinant full length human V1B receptor expressed in CHO-K1 cells at 10 uM after 120 mins by radiometric scintillation analysis relative to control; format: cell-based
[10] = molecular target: SRSF protein kinase 3 (Homo sapiens, UniProt Q9UPE1); assay: Inhibition of recombinant full length human GST-tagged MSSK1 expressed in baculovirus expression system using serine/threonine-18 peptide as substrate incubated for 60 mins in presence of ATP by Z'-LYTE assay
[11] = molecular target: T1, Glutamate NMDA receptor (Rattus norvegicus) (UniProt P35439+Q00959+Q00960+Q00961+Q62645+Q8VHN2+Q9R1M7); assay: Displacement of [3H]TCP from glutamate NMDA receptor phencyclidine binding site in Wistar rat cerebral cortex at 10 uM incubated for 45 mins by radiometric scintillation analysis relative to control
[12] = molecular target: Thyrotropin-releasing hormone receptor (Rattus norvegicus) (UniProt Q01717); assay: Inhibition of rat TRH receptor at 10 uM relative to control
Sequence of Thyrotropin-releasing hormone receptor (Rattus norvegicus) (Q01717 whole entry): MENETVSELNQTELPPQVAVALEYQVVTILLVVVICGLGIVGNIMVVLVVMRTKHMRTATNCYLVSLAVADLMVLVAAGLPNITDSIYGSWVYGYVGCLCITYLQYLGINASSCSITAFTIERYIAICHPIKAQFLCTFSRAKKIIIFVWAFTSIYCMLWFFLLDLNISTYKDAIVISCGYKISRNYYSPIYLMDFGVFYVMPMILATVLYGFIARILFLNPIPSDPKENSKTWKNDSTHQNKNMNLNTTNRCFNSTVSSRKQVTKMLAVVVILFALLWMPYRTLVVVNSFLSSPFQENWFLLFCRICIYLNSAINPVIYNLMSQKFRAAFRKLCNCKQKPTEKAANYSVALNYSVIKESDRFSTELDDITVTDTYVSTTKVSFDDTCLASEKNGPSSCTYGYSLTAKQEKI

[13] = molecular target: Rhodopsin kinase GRK7 (Homo sapiens, UniProt Q8WTQ7); assay: Inhibition of recombinant full length human GST-tagged GRK7 expressed in baculovirus expression system using serine/threonine-16 peptide as substrate incubated for 60 mins in presence of ATP by Z'-LYTE assay
[14] = molecular target: Vasopressin V1a receptor (Homo sapiens) (UniProt P37288); assay: Displacement of [125I]phenylacetylTyr(Me)PheGlnAsnArgProArgTyr from recombinant full length human V1A receptor expressed in HEK293 cells at 10 uM after 120 mins by radiometric scintillation analysis relative to control; format: cell-based
[15] = molecular target: Serine/threonine-protein kinase D2 (Homo sapiens, UniProt Q9BZL6); assay: Inhibition of recombinant full length human GST-tagged PRKD2 expressed in baculovirus expression system using serine/threonine-01 peptide as substrate incubated for 60 mins in presence of ATP by Z'-LYTE assay
[16] = molecular target: Inhibitor of nuclear factor kappa-B kinase subunit alpha (Homo sapiens, UniProt O15111); assay: Inhibition of recombinant full length His-tagged human IKKalpha expressed in baculovirus expression system after 1 hr in presence of ATP by Adapta assay
[17] = molecular target: Epidermal growth factor receptor (Homo sapiens, UniProt P00533); assay: Inhibition of human EGFR (668 to 1210 residues) expressed in insect cells at 10 uM using Poly(Glu:Tyr) as substrate after 30 mins by radiometric scintillation analysis relative to control
Sequence of Epidermal growth factor receptor (P00533 whole entry, the tested form may be a part): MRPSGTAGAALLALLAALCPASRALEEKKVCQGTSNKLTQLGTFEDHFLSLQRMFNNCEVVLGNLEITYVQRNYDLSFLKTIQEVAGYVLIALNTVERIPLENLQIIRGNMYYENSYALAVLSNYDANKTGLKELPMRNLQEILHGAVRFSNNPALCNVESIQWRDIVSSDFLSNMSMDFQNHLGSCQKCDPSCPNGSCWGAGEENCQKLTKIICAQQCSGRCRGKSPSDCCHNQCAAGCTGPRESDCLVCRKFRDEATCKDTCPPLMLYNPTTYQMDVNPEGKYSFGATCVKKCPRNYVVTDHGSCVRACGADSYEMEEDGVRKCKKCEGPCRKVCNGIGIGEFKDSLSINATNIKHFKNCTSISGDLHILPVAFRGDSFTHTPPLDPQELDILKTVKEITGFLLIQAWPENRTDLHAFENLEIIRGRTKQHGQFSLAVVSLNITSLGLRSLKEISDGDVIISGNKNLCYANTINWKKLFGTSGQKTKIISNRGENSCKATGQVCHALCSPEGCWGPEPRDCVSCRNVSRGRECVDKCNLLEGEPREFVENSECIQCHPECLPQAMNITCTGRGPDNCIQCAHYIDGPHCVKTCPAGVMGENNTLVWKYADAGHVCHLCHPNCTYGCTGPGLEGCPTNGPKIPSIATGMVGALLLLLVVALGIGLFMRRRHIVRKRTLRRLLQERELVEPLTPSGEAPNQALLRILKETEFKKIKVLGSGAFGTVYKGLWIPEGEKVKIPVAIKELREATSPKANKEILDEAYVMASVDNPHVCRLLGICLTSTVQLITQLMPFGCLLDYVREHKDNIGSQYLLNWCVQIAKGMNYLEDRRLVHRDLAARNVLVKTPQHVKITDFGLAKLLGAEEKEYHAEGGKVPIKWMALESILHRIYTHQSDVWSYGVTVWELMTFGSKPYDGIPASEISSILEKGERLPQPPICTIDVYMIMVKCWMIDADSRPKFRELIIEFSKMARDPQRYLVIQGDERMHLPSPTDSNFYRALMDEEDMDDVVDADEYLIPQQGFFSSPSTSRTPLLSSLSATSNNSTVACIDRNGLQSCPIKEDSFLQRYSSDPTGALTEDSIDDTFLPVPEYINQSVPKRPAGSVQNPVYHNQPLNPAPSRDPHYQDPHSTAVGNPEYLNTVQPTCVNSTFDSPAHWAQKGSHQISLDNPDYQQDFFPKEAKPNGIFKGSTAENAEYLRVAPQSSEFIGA

[18] = molecular target: Focal adhesion kinase 1 (Homo sapiens, UniProt Q05397); assay: Inhibition of recombinant full length human GST-tagged PTK2 expressed in baculovirus expression system using tyr07 peptide as substrate incubated for 60 mins in presence of ATP by Z'-LYTE assay
[19] = molecular target: T1, Glutamate NMDA receptor (Rattus norvegicus); assay: Displacement of [3H]Ifenprodil from in glutamate NMDA receptor polyamine binding site in Wistar rat cerebral cortex at 10 uM incubated for 120 mins by radiometric scintillation analysis relative to control
[20] = molecular target: Serine/threonine-protein kinase PAK 4 (Homo sapiens, UniProt O96013); assay: Inhibition of recombinant human GST-tagged PAK4 catalytic domain (295 to 591 residues) expressed in baculovirus expression system using serine/threonine-20 peptide as substrate incubated for 60 mins in presence of ATP by Z'-LYTE assay
[21] = molecular target: Muscarinic acetylcholine receptor M3 (Homo sapiens) (UniProt P20309); assay: Displacement of [3H]N-Methylscopolamine from full length human recombinant Muscarinic M3 receptor expressed in CHOK1 cells at 10 uM measured after 120 mins by radiometric scintillation analysis relative to control; format: cell-based; details: CHO-K1
[22] = molecular target: Glycogen synthase kinase-3 beta (Homo sapiens, UniProt P49841); assay: Inhibition of recombinant full length human His-tagged GSK3beta expressed in baculovirus expression system using serine/threonine-9 peptide as substrate incubated for 60 mins in presence of ATP by Z'-LYTE assay
Sequence of Glycogen synthase kinase-3 beta (P49841 whole entry): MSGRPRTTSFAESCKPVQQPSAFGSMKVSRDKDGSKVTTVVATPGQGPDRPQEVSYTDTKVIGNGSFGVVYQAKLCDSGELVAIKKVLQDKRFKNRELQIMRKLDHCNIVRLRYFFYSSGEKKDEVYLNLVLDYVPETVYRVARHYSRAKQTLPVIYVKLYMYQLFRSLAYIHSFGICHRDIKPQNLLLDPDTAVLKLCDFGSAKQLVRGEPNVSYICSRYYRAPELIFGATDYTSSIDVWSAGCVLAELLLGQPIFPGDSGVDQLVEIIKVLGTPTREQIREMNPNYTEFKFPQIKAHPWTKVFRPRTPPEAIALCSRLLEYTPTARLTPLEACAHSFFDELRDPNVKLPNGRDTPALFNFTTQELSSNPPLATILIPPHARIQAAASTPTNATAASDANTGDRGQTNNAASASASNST

[23] = molecular target: Mitogen-activated protein kinase kinase kinase kinase 5 (Homo sapiens, UniProt Q9Y4K4); assay: Inhibition of recombinant full length human GST-tagged KHS1 expressed in baculovirus expression system using serine/threonine-7 peptide as substrate incubated for 60 mins in presence of ATP by Z'-LYTE assay
[24] = molecular target: Tyrosine-protein kinase BTK (Homo sapiens, UniProt Q06187); assay: Inhibition of recombinant full length human His-tagged BTK expressed in baculovirus expression system using tyrosine-2 peptide as substrate incubated for 60 mins in presence of ATP by Z'-LYTE assay
[25] = molecular target: Vascular endothelial growth factor receptor 2 (Homo sapiens, UniProt P35968); assay: Inhibition of recombinant human His-tagged KDR (789 to 1356 residues) expressed in baculovirus expression system using Tyr1 as substrate incubated for 1 hr in presence of ATP by Z'-LYTE assay
[26] = molecular target: Muscle, skeletal receptor tyrosine-protein kinase (Homo sapiens, UniProt O15146); assay: Inhibition of recombinant human GST-tagged MUSK cytoplasmic domain (519 to 869 residues) expressed in baculovirus expression system using tyrosine-4 peptide as substrate incubated for 60 mins in presence of ATP by Z'-LYTE assay
Sequence of Muscle, skeletal receptor tyrosine-protein kinase (O15146 whole entry, the tested form may be a part): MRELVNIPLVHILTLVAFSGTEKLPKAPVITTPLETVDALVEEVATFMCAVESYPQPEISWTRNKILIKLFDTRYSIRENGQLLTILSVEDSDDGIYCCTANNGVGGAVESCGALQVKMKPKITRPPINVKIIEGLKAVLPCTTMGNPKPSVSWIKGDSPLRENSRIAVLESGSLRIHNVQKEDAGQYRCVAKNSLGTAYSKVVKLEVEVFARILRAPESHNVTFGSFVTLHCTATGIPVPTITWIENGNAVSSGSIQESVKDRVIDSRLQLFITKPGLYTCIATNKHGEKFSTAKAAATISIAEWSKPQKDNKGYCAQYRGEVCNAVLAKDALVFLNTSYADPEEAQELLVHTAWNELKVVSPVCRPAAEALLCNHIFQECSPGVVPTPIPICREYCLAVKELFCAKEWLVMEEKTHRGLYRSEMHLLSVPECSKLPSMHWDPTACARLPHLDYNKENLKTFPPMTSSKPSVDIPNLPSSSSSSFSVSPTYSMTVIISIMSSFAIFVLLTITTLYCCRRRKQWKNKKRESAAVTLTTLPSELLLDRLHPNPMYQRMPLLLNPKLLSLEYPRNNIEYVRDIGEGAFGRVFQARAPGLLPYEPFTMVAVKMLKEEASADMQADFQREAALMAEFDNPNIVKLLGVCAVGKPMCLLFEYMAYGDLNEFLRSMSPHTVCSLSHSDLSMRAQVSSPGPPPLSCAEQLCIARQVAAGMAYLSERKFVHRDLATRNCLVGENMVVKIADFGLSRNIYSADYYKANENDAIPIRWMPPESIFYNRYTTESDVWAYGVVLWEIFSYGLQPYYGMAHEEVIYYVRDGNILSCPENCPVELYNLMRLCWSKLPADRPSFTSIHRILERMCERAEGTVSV

Sequence of Nuclear receptor subfamily 1 group I member 2 (O75469 whole entry): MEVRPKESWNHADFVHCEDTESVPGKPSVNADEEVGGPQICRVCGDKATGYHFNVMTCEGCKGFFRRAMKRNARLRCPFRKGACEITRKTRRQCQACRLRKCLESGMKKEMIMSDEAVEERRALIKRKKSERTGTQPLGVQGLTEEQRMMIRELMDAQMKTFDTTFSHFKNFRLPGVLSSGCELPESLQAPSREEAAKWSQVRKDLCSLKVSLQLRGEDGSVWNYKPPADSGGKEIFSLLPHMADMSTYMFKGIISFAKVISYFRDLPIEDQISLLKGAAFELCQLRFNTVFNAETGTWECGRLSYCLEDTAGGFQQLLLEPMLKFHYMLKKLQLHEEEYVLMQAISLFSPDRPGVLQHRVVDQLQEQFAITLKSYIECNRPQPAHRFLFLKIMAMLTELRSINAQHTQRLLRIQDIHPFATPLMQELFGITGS

Work on `C[C@@H]1C[C@H]1C(=O)N1CCN(c2cnc(C#N)c(-c3cnn(C)c3)n2)C[C@H]1C` yielded a bioavailability [1] of 100%, an EC50 [2] of over 30 µM and an inhibition [3] of 18%. It also gave an inhibition [4] of 7%, an IC50 [5] of 26.3 µM and an IC50 [6] of over 100 µM. For the same compound, the IC50 [7] was over 100 µM, the IC50 [8] was over 100 µM and the inhibition [9] was 6%. The IC50 [10] was over 100 µM, the inhibition [11] was -4% and the inhibition [12] was 0%. For the same compound, the IC50 [13] was over 100 µM, the inhibition [14] was -3% and the IC50 [15] was over 100 µM. The IC50 [16] was over 100 µM, the inhibition [17] was -9% and the IC50 [18] was over 100 µM. The inhibition [19] was 0%, the IC50 [20] was over 100 µM and the inhibition [21] was 0%. The IC50 [22] was 28.1 µM, the IC50 [23] was 30.4 µM and the IC50 [24] was 39.6 µM. It also gave an IC50 [25] of 37.6 µM and an IC50 [26] of over 100 µM.
